Reference: ChEMBL document CHEMBL3352756, “Synthesis and evaluation of pyrazolines bearing benzothiazole as anti-inflammatory agents” (Bioorg Med Chem, 2014)

Key:
[1] = (§1) Cytotoxicity against mouse RAW264.7 cells assessed as cell viability at 20 uM after 24 hrs by MTT assay in presence of LPS; type: cell-based; settings: RAW264.7 cells, read-out: Activity
RAW264.7 [2] = experiment: Antiinflammatory activity in mouse RAW264.7 cells assessed as inhibition of LPS-induced TNF-alpha release at 20 uM after 24 hrs by ELISA; type: functional; settings: RAW264.7, 24 h
Rattus norvegicus [3] = experiment: Toxicity in rat assessed as damage to epithelial layer of stomach at 60 mg/kg, po after 5 hrs; type: organism-based; set-up: dose 60 mg/kg, route oral; settings: in vivo
Rattus norvegicus [4] = experiment: Toxicity in rat assessed as ulceration at 60 mg/kg, po after 5 hrs; type: organism-based; set-up: dose 60 mg/kg, route oral; settings: in vivo
RAW264.7 [5] = experiment: as §1; type: cell-based; settings: raw264.7, 24 h, 20 µM
Rattus norvegicus [6] = experiment: Antiinflammatory activity in albino Wistar rat paw edema model assessed as inhibition of carrageenan-induced paw edema at 20 mg/kg, po administered 1 hr prior to carrageenan challenge measured after 3 to 5 hrs by plethysmometry relative to vehicle-treated control; type: functional

SMILES	viability at 24 h, 20 µM [1] [%]	inhibition at 20 µM (RAW264.7 [2]) [%]	Activity (Rattus norvegicus [3])	Activity (Rattus norvegicus [4])	Activity (RAW264.7 [5])	inhibition in vivo at 20 mg/kg (Rattus norvegicus [6]) [%]
COc1ccc(C2CC(c3ccc(Br)cc3)=NN2c2nc3ccc(S(N)(=O)=O)cc3s2)cc1 (stereo unspecified)	86	38				
NS(=O)(=O)c1ccc2nc(N3N=C(c4ccc(Cl)cc4)CC3c3ccc(F)cc3)sc2c1 (stereo unspecified)	86	38				
NS(=O)(=O)c1ccc2nc(N3N=C(c4ccc(Br)cc4)CC3c3ccc(F)cc3)sc2c1 (stereo unspecified)	86	38				
NS(=O)(=O)c1ccc2nc(N3N=C(c4ccc(Cl)cc4)CC3c3ccccc3Cl)sc2c1 (stereo unspecified)	> 90	38	Non-toxic	Non-toxic		
NS(=O)(=O)c1ccc2nc(N3N=C(c4ccc(Cl)cc4)CC3c3ccc(Cl)cc3)sc2c1 (stereo unspecified)	> 90	38	Non-toxic	Non-toxic		
COc1ccc(C2CC(c3ccc(Cl)cc3)=NN2c2nc3ccc(S(N)(=O)=O)cc3s2)cc1 (stereo unspecified)		38			Toxic	67.7
Cc1ccc(-c2cc(C(F)(F)F)nn2-c2ccc(S(N)(=O)=O)cc2)cc1 [CELECOXIB]		53.4	Non-toxic	Non-toxic		67
NS(=O)(=O)c1ccc2nc(N3N=C(c4ccc(Cl)cc4)CC3c3ccccc3)sc2c1 (stereo unspecified)	> 90	72.2	Non-toxic	Non-toxic		68.3
Cc1ccc(C2CC(c3ccc(Cl)cc3)=NN2c2nc3ccc(S(N)(=O)=O)cc3s2)cc1 (stereo unspecified)		38				
NS(=O)(=O)c1ccc2nc(N3N=C(c4ccc(Br)cc4)CC3c3ccc(Cl)cc3)sc2c1 (stereo unspecified)	90	71.7	Non-toxic	Non-toxic		
